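The compound was tested at five concentrations on cells cultured in 96-well plates, with a 48-hour exposure period. Here, GI50 denotes the concentration required for 50% inhibition of growth.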 Activity calls are given as the source filed them. Rule as the data show it: active = GI50 up to about 1.1 µM and inactive = higher.
What was measured:
Assay in all cases: NCI-60 cell line screen, 48 h
786-0 = tested on: 786-0
A498 = tested on: A498
A549 = tested on: A549
ACHN = tested on: ACHN
BT-549 = tested on: BT-549
CAKI-1 = tested on: CAKI-1
CCRF-CEM = tested on: CCRF-CEM
COLO 205 = tested on: COLO 205
DU-145 = tested on: DU-145
EKVX = tested on: EKVX
HCT-116 = tested on: HCT-116
HCT-15 = tested on: HCT-15
HOP-62 = tested on: HOP-62
HOP-92 = tested on: HOP-92
HT-29 = tested on: HT-29
Hs-578T = tested on: Hs-578T
IGROV-1 = tested on: IGROV-1
K562 = tested on: K562
KM12 = tested on: KM12
LOX IMVI = tested on: LOX IMVI
M14 = tested on: M14
MCF7 = tested on: MCF7
MDA-MB-231 = tested on: MDA-MB-231
MDA-MB-435 = tested on: MDA-MB-435
MDA-N = tested on: MDA-N
MOLT-4 = tested on: MOLT-4
Malme-3M = tested on: Malme-3M
NCI-H226 = tested on: NCI-H226
NCI-H23 = tested on: NCI-H23
NCI-H460 = tested on: NCI-H460
NCI-H522 = tested on: NCI-H522
NCI/ADR-RES = tested on: NCI/ADR-RES
OVCAR-3 = tested on: OVCAR-3
OVCAR-4 = tested on: OVCAR-4
OVCAR-5 = tested on: OVCAR-5
OVCAR-8 = tested on: OVCAR-8
PC-3 = tested on: PC-3
RPMI-8226 = tested on: RPMI-8226
RXF 393 = tested on: RXF 393
SF-268 = tested on: SF-268
SF-295 = tested on: SF-295
SF-539 = tested on: SF-539
SK-MEL-28 = tested on: SK-MEL-28
SK-MEL-2 = tested on: SK-MEL-2
SK-MEL-5 = tested on: SK-MEL-5
SK-OV-3 = tested on: SK-OV-3
SN12C = tested on: SN12C
SNB-19 = tested on: SNB-19
SNB-75 = tested on: SNB-75
SR = tested on: SR
SW-620 = tested on: SW-620
T47D = tested on: T47D
TK-10 = tested on: TK-10
U-251 = tested on: U-251
UACC-257 = tested on: UACC-257
UACC-62 = tested on: UACC-62
HCC 2998 = tested on: HCC 2998
HL-60 = tested on: HL-60

O=C(O)CCN1C(=S)CSC1=S
GI50 (786-0): > 100 µM (inactive)
GI50 (A498): > 100 µM (inactive)
GI50 (A549): > 100 µM (inactive)
GI50 (ACHN): > 100 µM (inactive)
GI50 (BT-549): > 100 µM (inactive)
GI50 (CAKI-1): > 100 µM (inactive)
GI50 (CCRF-CEM): 44.2 µM (inactive)
GI50 (COLO 205): > 100 µM (inactive)
GI50 (DU-145): > 100 µM (inactive)
GI50 (EKVX): > 100 µM (inactive)
GI50 (HCT-116): > 100 µM (inactive)
GI50 (HCT-15): > 100 µM
GI50 (HOP-62): > 100 µM (inactive)
GI50 (HOP-92): > 100 µM (inactive)
GI50 (HT-29): > 100 µM (inactive)
GI50 (Hs-578T): > 100 µM (inactive)
GI50 (IGROV-1): > 100 µM (inactive)
GI50 (K562): 78 µM (inactive)
GI50 (KM12): > 100 µM (inactive)
GI50 (LOX IMVI): 94.4 µM (inactive)
GI50 (M14): > 100 µM (inactive)
GI50 (MCF7): 67.5 µM (inactive)
GI50 (MDA-MB-231): > 100 µM (inactive)
GI50 (MDA-MB-435): > 100 µM (inactive)
GI50 (MDA-N): > 100 µM (inactive)
GI50 (MOLT-4): 42 µM (inactive)
GI50 (Malme-3M): > 100 µM (inactive)
GI50 (NCI-H226): > 100 µM (inactive)
GI50 (NCI-H23): > 100 µM (inactive)
GI50 (NCI-H460): 88.1 µM (inactive)
GI50 (NCI-H522): 67.8 µM (inactive)
GI50 (NCI/ADR-RES): > 100 µM (inactive)
GI50 (OVCAR-3): > 100 µM (inactive)
GI50 (OVCAR-4): > 100 µM (inactive)
GI50 (OVCAR-5): > 100 µM (inactive)
GI50 (OVCAR-8): > 100 µM (inactive)
GI50 (PC-3): > 100 µM (inactive)
GI50 (RPMI-8226): 54.7 µM (inactive)
GI50 (RXF 393): > 100 µM (inactive)
GI50 (SF-268): > 100 µM (inactive)
GI50 (SF-295): > 100 µM (inactive)
GI50 (SF-539): > 100 µM (inactive)
GI50 (SK-MEL-28): > 100 µM (inactive)
GI50 (SK-MEL-2): > 100 µM (inactive)
GI50 (SK-MEL-5): > 100 µM (inactive)
GI50 (SK-OV-3): > 100 µM (inactive)
GI50 (SN12C): > 100 µM (inactive)
GI50 (SNB-19): > 100 µM (inactive)
GI50 (SNB-75): > 100 µM (inactive)
GI50 (SR): 39.7 µM (inactive)
GI50 (SW-620): > 100 µM (inactive)
GI50 (T47D): > 100 µM (inactive)
GI50 (TK-10): > 100 µM (inactive)
GI50 (U-251): > 100 µM (inactive)
GI50 (UACC-257): > 100 µM (inactive)
GI50 (UACC-62): > 100 µM (inactive)

Cc1nn(C(=O)c2ccccc2O)c2c1C(c1ccccc1O)SC(=N)N2 (configuration not stated)
GI50 (786-0): 4.53 µM (inactive)
GI50 (A549): 8.04 µM (inactive)
GI50 (ACHN): 3.44 µM (inactive)
GI50 (BT-549): > 10 µM (inactive)
GI50 (CAKI-1): 8.07 µM (inactive)
GI50 (CCRF-CEM): 3.1 µM (inactive)
GI50 (COLO 205): > 10 µM (inactive)
GI50 (DU-145): 8.85 µM (inactive)
GI50 (EKVX): 9.27 µM (inactive)
GI50 (HCC 2998): > 10 µM (inactive)
GI50 (HCT-116): 4.12 µM (inactive)
GI50 (HCT-15): 4.42 µM
GI50 (HL-60): 2.22 µM (inactive)
GI50 (HOP-62): 0.869 µM (active)
GI50 (HOP-92): > 10 µM (inactive)
GI50 (HT-29): > 10 µM (inactive)
GI50 (Hs-578T): > 10 µM (inactive)
GI50 (IGROV-1): 1.01 µM (active)
GI50 (K562): 3.24 µM (inactive)
GI50 (KM12): 4.65 µM (inactive)
GI50 (LOX IMVI): 6.1 µM (inactive)
GI50 (M14): 4.54 µM (inactive)
GI50 (MCF7): 2.75 µM (inactive)
GI50 (MDA-MB-231): 0.649 µM (active)
GI50 (MDA-MB-435): 3.08 µM (inactive)
GI50 (MDA-N): > 10 µM (inactive)
GI50 (MOLT-4): 2.67 µM (inactive)
GI50 (Malme-3M): > 10 µM (inactive)
GI50 (NCI-H226): 1.49 µM (inactive)
GI50 (NCI-H23): 2.94 µM (inactive)
GI50 (NCI-H460): 4.36 µM (inactive)
GI50 (NCI-H522): 3.47 µM (inactive)
GI50 (NCI/ADR-RES): 4.09 µM (inactive)
GI50 (OVCAR-3): 2.54 µM (inactive)
GI50 (OVCAR-4): 2.53 µM (inactive)
GI50 (OVCAR-5): 6.32 µM (inactive)
GI50 (OVCAR-8): 2.82 µM (inactive)
GI50 (PC-3): 7.71 µM (inactive)
GI50 (RPMI-8226): 3.34 µM (inactive)
GI50 (RXF 393): > 10 µM (inactive)
GI50 (SF-268): 6.81 µM (inactive)
GI50 (SF-295): 7.53 µM (inactive)
GI50 (SF-539): 0.421 µM (active)
GI50 (SK-MEL-28): > 10 µM (inactive)
GI50 (SK-MEL-2): 4.65 µM (inactive)
GI50 (SK-MEL-5): 2.46 µM (inactive)
GI50 (SK-OV-3): 5.02 µM (inactive)
GI50 (SN12C): 4.82 µM (inactive)
GI50 (SNB-75): 4.06 µM (inactive)
GI50 (SR): 1.95 µM (inactive)
GI50 (SW-620): 6.11 µM (inactive)
GI50 (T47D): 5.78 µM (inactive)
GI50 (TK-10): 1.69 µM (inactive)
GI50 (U-251): 4.39 µM (inactive)
GI50 (UACC-257): 1.5 µM (inactive)
GI50 (UACC-62): 3.08 µM (inactive)
